The values below come from US11161856B2 (H. Lundbeck A/S, priority 2017, dated 2021).

The target of one experiment is T1, MGLL (Mus musculus, UniProt O35678).
T1 construct: Brain; from tissue; host or cells: mouse brain proteome
T1 sequence (O35678 1-303): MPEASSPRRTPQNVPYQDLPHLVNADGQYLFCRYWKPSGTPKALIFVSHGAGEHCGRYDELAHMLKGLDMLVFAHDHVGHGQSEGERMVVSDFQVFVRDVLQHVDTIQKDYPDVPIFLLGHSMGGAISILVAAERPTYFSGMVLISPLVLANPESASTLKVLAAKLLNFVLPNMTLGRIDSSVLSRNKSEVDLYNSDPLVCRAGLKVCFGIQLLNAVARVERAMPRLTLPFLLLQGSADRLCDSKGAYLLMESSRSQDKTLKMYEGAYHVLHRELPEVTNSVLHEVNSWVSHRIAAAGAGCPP
In words: In vitro competitive activity-based protein profiling, mouse brain proteome (MGLL). It is filed as biochemical. As to conditions: concentration not given (μM).

A further experiment addresses T2, ABHD6 (Mus musculus, UniProt Q8R2Y0).
T2 construct: Brain; from tissue; host or cells: mouse brain proteome
T2 sequence (Q8R2Y0 1-336): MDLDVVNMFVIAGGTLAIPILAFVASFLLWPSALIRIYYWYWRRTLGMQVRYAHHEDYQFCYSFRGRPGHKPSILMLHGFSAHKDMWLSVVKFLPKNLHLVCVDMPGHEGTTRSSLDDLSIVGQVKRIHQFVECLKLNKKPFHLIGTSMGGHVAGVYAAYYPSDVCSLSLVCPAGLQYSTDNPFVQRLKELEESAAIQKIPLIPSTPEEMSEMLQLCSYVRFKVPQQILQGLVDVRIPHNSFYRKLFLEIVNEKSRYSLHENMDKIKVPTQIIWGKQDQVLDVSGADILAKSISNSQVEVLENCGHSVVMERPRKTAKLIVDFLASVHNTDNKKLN
In words: In vitro competitive activity-based protein profiling, mouse brain proteome (ABHD6). It counts as biochemical. As to conditions: mouse brain proteome; concentration not given (μM). Here is the method:
[The source words this procedure for another target and reports this target under the same test.] In Vitro Competitive Activity-Based Protein Profiling.
Proteomes (human prefrontal cortex or cell membrane fractions) (50 μL, 1.0 mg/mL total protein concentration) were preincubated with varying concentrations of inhibitors at 37° C. After 30 min, FP-Rh or HT-01 (1.0 μL, 50 μM in DMSO) was added and the mixture was incubated for another 30 min at room temperature. Reactions were quenched with SDS loading buffer (15 μL-4×) and run on SDS-PAGE.

As to `O=C(OC(C(F)(F)F)C(F)(F)F)N1CC2(CCN(Cc3ccc(N4CCOCC4)cc3)CC2)C1` [Example 65, 1,1,1,3,3,3-Hexafluoropropan-2-yl 7-(4-morpholinobenzyl)-2,7-diazaspiro[3.5]nonane-2-carboxylate], the “% Inh MGLL Brain (Mouse, μM)” value on MGLL is recorded as “### (### is ≥75%)”. For the same compound, the “% Inh ABHD6 Brain (Mouse, μM)” value on ABHD6 is “### (### is ≥75%)”.
With `COc1ccc(CN2CC3(CCN(C(=O)OC(C(F)(F)F)C(F)(F)F)CC3)C2)cc1` [Example 85, 1,1,1,3,3,3-Hexafluoropropan-2-yl 2-(4-methoxybenzyl)-2,7-diazaspiro[3.5]nonane-7-carboxylate], the “% Inh MGLL Brain (Mouse, μM)” value on MGLL is “### (### is ≥75%)”. Moreover, the “% Inh ABHD6 Brain (Mouse, μM)” value at ABHD6 is listed as “### (### is ≥75%)”.
Take `CS(=O)(=O)N1CC2CN(c3cc(C(F)(F)F)ccc3CN3CCN(C(=O)OC(C(F)(F)F)C(F)(F)F)CC3)CC2C1` (stereo not drawn) [Example 201, 1,1,1,3,3,3-Hexafluoropropan-2-yl 4-(2-(5-(methylsulfonyl)hexahydropyrrolo[3,4-c]pyrrol-2(lH)-yl)-4-(tnfluoromethyl)benzyl)pipera zinc-1-carboxylate]: the “% Inh MGLL Brain (Mouse, μM)” value on MGLL is listed as “### (### is ≥75%)”. In addition, at ABHD6, the “% Inh ABHD6 Brain (Mouse, μM)” value is “## (## is between 25 and 75%)”.
For `CC(=O)N1CC2(CCN(c3ccccc3CN3CCN(C(=O)OC(C(F)(F)F)C(F)(F)F)CC3)C2)C1` [Example 168, 1,1,1,3,3,3-Hexafluoropropan-2-yl 4-(2-(2-acetyl-2,6-diazaspiro[3.4]octan-6-yl)benzyl)piperazine-1-carboxylate], the “% Inh MGLL Brain (Mouse, μM)” value on MGLL is “### (### is ≥75%)”. The “% Inh ABHD6 Brain (Mouse, μM)” value on ABHD6 is recorded as “# (# is ≤25%)”.
In the case of `CC(=O)N1CC2(CCN(c3cc(Cl)ccc3CN3CCN(C(=O)OC(C(F)(F)F)C(F)(F)F)CC3)CC2)C1` [Example 213, 1,1,1,3,3,3-Hexafluoropropan-2-yl 4-(2-(2-acetyl-2,7-diazaspiro[3.5]nonan-7-yl)-4-chlorobenzyl)piperazine-1-carboxylate], the “% Inh MGLL Brain (Mouse, μM)” value at MGLL is listed as “### (### is ≥75%)”. Also, the “% Inh ABHD6 Brain (Mouse, μM)” value on ABHD6 is “## (## is between 25 and 75%)”.
Take `Cc1cc(-c2ccccc2)ccc1CN1CCC2(CC1)CN(C(=O)OC(C(F)(F)F)C(F)(F)F)C2` [Example 19, 1,1,1,3,3,3-Hexafluoropropan-2-yl 7-((3-methyl-[1,1′-biphenyl]-4-yl)methyl)-2,7-diazaspiro[3.5]nonane-2-carboxylate]: the “% Inh MGLL Brain (Mouse, μM)” value on MGLL is “## (## is between 25 and 75%)”. Also, the “% Inh ABHD6 Brain (Mouse, μM)” value on ABHD6 is reported as “### (### is ≥75%)”.
`O=C(OC(C(F)(F)F)C(F)(F)F)N1CCC2(CC1)CN(Cc1ccc(Cl)c(Cl)c1)C2` [Example 67, 1,1,1,3,3,3-Hexafluoropropan-2-yl 2-(3,4-dichlorobenzyl)-2,7-diazaspiro[3,5]nonane-7-carboxylate]: the “% Inh MGLL Brain (Mouse, μM)” value at MGLL was “### (### is ≥75%)”. Also, the “% Inh ABHD6 Brain (Mouse, μM)” value at ABHD6 is listed as “### (### is ≥75%)”.
`O=C(OC(C(F)(F)F)C(F)(F)F)N1CCC2(CC1)CN(Cc1cccc(Oc3ccccc3)c1)C2` [Example 78, 1,1,1,3,3,3-Hexafluoropropan-2-yl 2-(3-phenoxybenzyl)-2,7-diazaspiro[3.5]nonane-7-carboxylate]: the “% Inh MGLL Brain (Mouse, μM)” value on MGLL is given as “### (### is ≥75%)”. Further, the “% Inh ABHD6 Brain (Mouse, μM)” value on ABHD6 is “### (### is ≥75%)”.
For `CS(=O)(=O)N1CCC2(CCN(c3cc(Cl)cc(CN4CCCC45CN(C(=O)OC(C(F)(F)F)C(F)(F)F)C5)c3)C2)CC1` [Example 237, 1,1,1,3,3,3-Hexafluoropropan-2-yl 5-(3-chloro-5-(8-(methylsulfonyl)-2,8-diazaspiro[4.5]decan-2-yl)benzyl)-2,5-diazaspiro[3.4]octane-2-carboxylate], the “% Inh MGLL Brain (Mouse, μM)” value on MGLL was “### (### is ≥75%)”. Moreover, the “% Inh ABHD6 Brain (Mouse, μM)” value at ABHD6 was “## (## is between 25 and 75%)”.
